From paper PMC12546632, “The role of cytochrome bc1 inhibitors in future tuberculosis treatment regimens” (Nature Communications, 2025)
Values after ≈ are worked out from the molar mass of the structure shown. Values joined by “and” are separate entries in the source; they are usually repeats but may differ in a detail not shown here. Equal values may be shown once. Read-outs that look alike come from different tables or passages of the source.

Key:
2D6 = biological target: T1, 2D6 (Homo sapiens, UniProt P10635); type: in vitro ADME
T1 construct: from tissue; host or cells: human liver microsomes
T1 sequence (P10635 whole entry): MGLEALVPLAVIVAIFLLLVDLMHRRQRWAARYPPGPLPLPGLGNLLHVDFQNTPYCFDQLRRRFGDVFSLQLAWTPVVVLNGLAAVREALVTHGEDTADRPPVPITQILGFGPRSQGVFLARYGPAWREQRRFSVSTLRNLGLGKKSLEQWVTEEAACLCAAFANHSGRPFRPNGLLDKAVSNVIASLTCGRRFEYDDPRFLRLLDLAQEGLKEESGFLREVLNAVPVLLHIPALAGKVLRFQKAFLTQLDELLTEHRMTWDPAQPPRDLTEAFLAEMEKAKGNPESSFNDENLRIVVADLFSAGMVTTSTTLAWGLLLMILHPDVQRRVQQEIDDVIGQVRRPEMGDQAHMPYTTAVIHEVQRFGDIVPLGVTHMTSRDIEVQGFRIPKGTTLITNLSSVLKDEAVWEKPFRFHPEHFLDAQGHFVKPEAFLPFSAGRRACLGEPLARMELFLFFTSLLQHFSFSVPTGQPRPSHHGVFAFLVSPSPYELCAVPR

[1] = system: M. tuberculosis ΔcydAB (Parent); assay: microbe, parasite or virus in culture; type: cell-based
M. tuberculosis H37Rv [2] = assay: MBC99.9 determination, H37Rv; type: cell-based, Mycobacterium tuberculosis
[3] = system: Salmonella typhimurium strains TA98 and TAMix
H37Rv_CytBd-KO = assay: microbe, parasite or virus in culture; type: cell-based, Mycobacterium tuberculosis; conditions: read-out: MBC99.9 (H37Rv_CytBd-KO)
2C8 = biological target: T2, 2C8 (Homo sapiens, UniProt P10632); type: in vitro ADME
T2 construct: from tissue; host or cells: human liver microsomes
T2 sequence (P10632 whole entry): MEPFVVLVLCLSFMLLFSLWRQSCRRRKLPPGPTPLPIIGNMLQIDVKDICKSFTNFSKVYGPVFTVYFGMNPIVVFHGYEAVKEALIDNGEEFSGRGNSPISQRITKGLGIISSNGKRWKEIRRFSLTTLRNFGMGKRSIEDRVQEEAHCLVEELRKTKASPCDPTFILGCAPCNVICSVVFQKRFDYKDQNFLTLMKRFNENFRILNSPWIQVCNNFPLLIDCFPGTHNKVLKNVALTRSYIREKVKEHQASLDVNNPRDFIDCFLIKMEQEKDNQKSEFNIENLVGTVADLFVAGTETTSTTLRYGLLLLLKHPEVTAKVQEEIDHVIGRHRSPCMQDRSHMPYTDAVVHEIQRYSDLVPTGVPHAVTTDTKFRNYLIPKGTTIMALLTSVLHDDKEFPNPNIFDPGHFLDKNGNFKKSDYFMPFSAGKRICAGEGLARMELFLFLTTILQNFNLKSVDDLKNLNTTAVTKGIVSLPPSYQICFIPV

N1283 clinical isolate = type: cell-based, Mycobacterium tuberculosis; conditions: biological replicates
clinical isolate, N1283 = system: clinical isolate, N1283; set-up: species or system Mycobacterium tuberculosis; conditions: in vivo
[4] = system: M. tuberculosis clinical isolates; assay: microbe, parasite or virus in culture; type: cell-based, Mycobacterium tuberculosis
2C9 = biological target: T3, 2C9 (Homo sapiens, UniProt P11712); type: in vitro ADME
T3 construct: from tissue; host or cells: human liver microsomes
T3 sequence (P11712 whole entry): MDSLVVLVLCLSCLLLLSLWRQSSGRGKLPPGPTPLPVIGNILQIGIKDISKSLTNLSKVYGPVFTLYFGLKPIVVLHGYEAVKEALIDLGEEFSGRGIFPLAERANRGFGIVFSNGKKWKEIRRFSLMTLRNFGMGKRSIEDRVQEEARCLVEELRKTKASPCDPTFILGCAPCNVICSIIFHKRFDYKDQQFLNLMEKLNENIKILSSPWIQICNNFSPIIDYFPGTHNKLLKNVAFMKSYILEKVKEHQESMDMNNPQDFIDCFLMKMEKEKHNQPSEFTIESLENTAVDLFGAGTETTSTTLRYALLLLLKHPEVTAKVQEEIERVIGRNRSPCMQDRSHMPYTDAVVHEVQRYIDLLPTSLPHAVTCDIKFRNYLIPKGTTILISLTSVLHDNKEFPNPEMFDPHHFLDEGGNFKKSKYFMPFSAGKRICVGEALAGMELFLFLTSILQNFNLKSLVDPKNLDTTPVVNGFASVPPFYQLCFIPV

2C19 = biological target: T4, 2C19 (Homo sapiens, UniProt P33261); type: in vitro ADME
T4 construct: from tissue; host or cells: human liver microsomes
T4 sequence (P33261 whole entry): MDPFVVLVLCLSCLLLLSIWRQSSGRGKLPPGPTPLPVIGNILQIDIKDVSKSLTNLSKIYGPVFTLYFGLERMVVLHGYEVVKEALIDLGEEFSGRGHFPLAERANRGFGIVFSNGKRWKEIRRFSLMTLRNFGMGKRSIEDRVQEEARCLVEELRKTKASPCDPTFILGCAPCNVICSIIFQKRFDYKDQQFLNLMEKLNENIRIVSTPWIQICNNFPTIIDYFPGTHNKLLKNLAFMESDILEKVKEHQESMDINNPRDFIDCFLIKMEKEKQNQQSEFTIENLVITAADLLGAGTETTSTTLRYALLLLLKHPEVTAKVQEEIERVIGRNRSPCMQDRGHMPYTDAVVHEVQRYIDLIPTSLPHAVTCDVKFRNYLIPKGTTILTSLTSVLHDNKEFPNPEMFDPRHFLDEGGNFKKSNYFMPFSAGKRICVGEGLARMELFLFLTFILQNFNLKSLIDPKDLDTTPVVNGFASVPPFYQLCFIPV

[5] = mouse, in vivo, iv, 1 mg/kg
[6] = type: in vitro ADME; conditions: hepatocytes
WT H37Rv = type: cell-based, Mycobacterium tuberculosis; conditions: biological replicates
[7] = type: in vitro ADME
Description: (§1) Details of the metabolic stability in liver microsomes and hepatocytes together with CYP inhibition in human liver microsomes and plasma protein binding have been published previously. The CYP induction assay was conducted by Puracyp Inc (www.puracyp.com). Studies were designed to evaluate the effect of compounds on the activation of human PXR (hPXR). The DPX2TM cells harbour the human PXR gene (NR1I2) and a luciferase reporter gene linked to two promoters identified in the human CYP3A4 gene, namely XREM and PXRE. These cells were seeded in a 96-well plate. Twenty-four hours after seeding, the cells were treated with various concentrations of compounds then incubated for an additional 24 h. Following this, the number of viable cells per well were determined using Promega’s CellTiter Fluor Cytotoxicity Assay. Briefly, One-Glo was added to the same wells and reporter gene activity was assessed. The luminescence light intensity was directly proportional to the extent of PXR activation and accompanying gene transcription in the DPX2TM cells.

human PXR (hPXR) = human PXR (hPXR) (Homo sapiens, UniProt O75469); type: in vitro ADME
Sequence of human PXR (hPXR) (O75469 whole entry): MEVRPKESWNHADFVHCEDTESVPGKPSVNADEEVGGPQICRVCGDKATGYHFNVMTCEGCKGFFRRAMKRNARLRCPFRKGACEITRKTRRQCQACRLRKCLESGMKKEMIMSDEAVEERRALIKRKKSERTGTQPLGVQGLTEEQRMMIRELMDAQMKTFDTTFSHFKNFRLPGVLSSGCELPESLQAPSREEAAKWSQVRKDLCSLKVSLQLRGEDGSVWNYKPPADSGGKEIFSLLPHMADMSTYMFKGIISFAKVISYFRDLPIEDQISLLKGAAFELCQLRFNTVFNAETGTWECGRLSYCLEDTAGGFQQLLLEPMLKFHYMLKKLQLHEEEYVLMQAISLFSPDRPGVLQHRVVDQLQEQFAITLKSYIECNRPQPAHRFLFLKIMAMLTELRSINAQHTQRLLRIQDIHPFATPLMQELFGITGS
Description: as §1

3A4 = biological target: T5, 3A4 (Homo sapiens, UniProt P08684); type: in vitro ADME
T5 construct: from tissue; host or cells: human liver microsomes
T5 sequence (P08684 whole entry): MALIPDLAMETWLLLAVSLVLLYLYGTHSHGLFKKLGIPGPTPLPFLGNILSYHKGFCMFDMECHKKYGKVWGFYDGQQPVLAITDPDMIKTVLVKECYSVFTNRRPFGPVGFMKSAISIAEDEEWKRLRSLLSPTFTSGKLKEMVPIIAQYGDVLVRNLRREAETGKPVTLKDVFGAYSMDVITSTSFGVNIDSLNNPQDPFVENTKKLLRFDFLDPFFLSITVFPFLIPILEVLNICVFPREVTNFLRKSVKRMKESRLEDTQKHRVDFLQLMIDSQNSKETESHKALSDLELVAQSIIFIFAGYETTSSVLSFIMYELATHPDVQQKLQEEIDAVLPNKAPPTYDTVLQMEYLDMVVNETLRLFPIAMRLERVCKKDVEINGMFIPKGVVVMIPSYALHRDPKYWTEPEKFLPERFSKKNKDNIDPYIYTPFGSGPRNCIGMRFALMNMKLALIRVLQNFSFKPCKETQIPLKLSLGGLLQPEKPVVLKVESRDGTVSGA

1A2 = biological target: T6, 1A2 (Homo sapiens, UniProt P05177); type: in vitro ADME
T6 construct: from tissue; host or cells: human liver microsomes
T6 sequence (P05177 whole entry): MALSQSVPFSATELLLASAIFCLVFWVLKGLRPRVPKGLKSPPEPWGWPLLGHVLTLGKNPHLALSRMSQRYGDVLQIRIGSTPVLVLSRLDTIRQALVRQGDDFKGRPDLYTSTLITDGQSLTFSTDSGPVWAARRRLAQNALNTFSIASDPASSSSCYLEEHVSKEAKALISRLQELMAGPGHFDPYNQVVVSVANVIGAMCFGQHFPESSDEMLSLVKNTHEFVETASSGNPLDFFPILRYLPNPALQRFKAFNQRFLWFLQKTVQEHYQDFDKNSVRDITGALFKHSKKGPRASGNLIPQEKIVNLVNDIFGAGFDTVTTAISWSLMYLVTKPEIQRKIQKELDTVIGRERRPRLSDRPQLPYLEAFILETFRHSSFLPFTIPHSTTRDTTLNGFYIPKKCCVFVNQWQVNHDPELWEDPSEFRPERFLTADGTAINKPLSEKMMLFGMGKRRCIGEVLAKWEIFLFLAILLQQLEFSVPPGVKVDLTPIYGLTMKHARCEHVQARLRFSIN

M. tuberculosis H37Rv [8] = assay: MIC90 determination, H37Rv; type: cell-based, Mycobacterium tuberculosis
H37Rv_CydBd-KO = assay: microbe, parasite or virus in culture; type: cell-based, Mycobacterium tuberculosis
M. tuberculosis HN878 = conditions: telacebec added to BPaC, after 4 weeks of treatment; cited from earlier work

In the case of `CCc1nc2ncc(C)cn2c1C(=O)NCc1ccc(N2CCN(S(=O)(=O)C(F)(F)F)C=N2)c(F)c1` [JNJ-4052], the IC50 (2D6) is reported as over 20 µM, the MIC50 ([1]; Parent (ΔcydAB)) is reported as 10 nM (≈ 5.28 ng/mL) and the MBC (M. tuberculosis H37Rv [2]) is reported as over 1250 nM. The “Mutagenicity (AMES II)” value [3] was “negative”, the IC20 (HepG2 cells) was 98.8 µM and the MBC (H37Rv_CytBd-KO) was 300 nM (≈ 158 ng/mL). The IC50 (2C8) was over 20 µM, the CFU counts (N1283 clinical isolate; Conc 8 nM) was 2200000 CFU and 6000000 CFU and 800000 CFU and 200000 CFU and the CFU counts (N1283 clinical isolate; Conc 32 nM) was 150000 CFU and 400000 CFU and 80000 CFU and 50000 CFU. For the same compound, the CFU counts (N1283 clinical isolate; Conc 128 nM) was 170000 CFU and 300000 CFU and 90000 CFU and 80000 CFU, the CFU reduction (clinical isolate, N1283) was 1.6 log10 and the MIC90 ([4]; strain Mtb-0617 (Karonga, lineage 3)) was 1.3 nM (≈ 0.686 ng/mL). It also gave an MIC90 ([4]; strain Mtb-2703 (Karonga, lineage 3)) of 0.13 nM (≈ 0.0686 ng/mL), an MIC90 ([4]; strain Mtb-4779 (Karonga, lineage 2)) of 0.29 nM (≈ 0.153 ng/mL) and an MIC90 ([4]; strain Mtb-4980 (Karonga, lineage 4)) of 0.7 nM (≈ 0.369 ng/mL). The MIC90 ([4]; strain Mtb-6787 (Karonga, lineage 4)) was 0.71 nM (≈ 0.375 ng/mL), the MIC90 ([4]; strain Mtb-7489 (Karonga, lineage 1)) was 2.5 nM (≈ 1.32 ng/mL) and the MIC90 ([4]; strain Mtb-7496 (Karonga, lineage 3)) was 0.29 nM (≈ 0.153 ng/mL). It also gave an MIC90 ([4]; strain Mtb-9271 (Karonga, lineage 4)) of 0.2 nM (≈ 0.106 ng/mL), an MIC90 ([4]; strain Mtb-61164 (Karonga, lineage 2)) of 0.79 nM (≈ 0.417 ng/mL) and an MIC90 ([4]; strain N0054 (Gagneux, lineage 3)) of 0.85 nM (≈ 0.448 ng/mL). For the same compound, the MIC90 ([4]; strain N0072 (Gagneux, lineage 1)) was 1.2 nM (≈ 0.633 ng/mL), the MIC90 ([4]; strain N1283 (Gagneux, lineage 4)) was 0.73 nM (≈ 0.385 ng/mL) and the IC50 (2C9) was over 20 µM. For the same compound, the IC50 (2C19) was over 20 µM, the “CLp as % LBF” value [5] was ~ 11 % LBF and the “Mouse Hep Clint” value [6] was 12 µL min-1 106 cells-1. For the same compound, the CFU counts (WT H37Rv; Conc 8 nM) was 50000000 CFU and 20000000 CFU and 53000000 CFU and 30000000 CFU, the CFU counts (WT H37Rv; Conc 32 nM) was 17000000 CFU and 12000000 CFU and the CFU counts (WT H37Rv; Conc 128 nM) was 26000000 CFU and 17000000 CFU. For the same compound, the “Plasma protein binding, Rat (% free)” value [7] was 2.67 % free, the “Dog Hep Clint” value ([7]; hepatocytes) was 4.7 µL min-1 106 cells-1 and the “Human Hep Clint” value ([7]; hepatocytes) was 6.7 µL min-1 106 cells-1. The “Rat Hep Clint” value ([7]; hepatocytes) was 19 µL min-1 106 cells-1, the “Dog LM Clint” value ([7]; microsomes) was under 7.7 µL min-1 mg protein-1 and the “Human LM Clint” value ([7]; microsomes) was 20.4 µL min-1 mg protein-1. For the same compound, the “Mouse LM Clint” value ([7]; microsomes) was 42 µL min-1 mg protein-1, the “Rat LM Clint” value ([7]; microsomes) was 16.7 µL min-1 mg protein-1 and the “Cyp3A4 ind. (%ctrl)” value (human PXR (hPXR); 1 µM) was 3.0 %ctrl. The “Cyp3A4 ind. (%ctrl)” value (human PXR (hPXR); 10 µM) was 21.2 %ctrl, the IC50 (3A4) was over 20 µM and the IC50 (1A2) was over 20 µM. It also gave an MIC90 (M. tuberculosis H37Rv [8]; read-out: MIC90 (H37Rv)) of 7 nM (≈ 3.69 ng/mL), an MIC90 (M. tuberculosis H37Rv [8]; strain H37Rv (Institut Pasteur, lineage 4), read-out: MIC90) of 6 nM (≈ 3.17 ng/mL) and an MIC90 (H37Rv_CydBd-KO) of 7 nM (≈ 3.69 ng/mL).
For `CCc1nc2ccc(Cl)cn2c1C(=O)NCc1ccc(N2CCC(c3ccc(OC(F)(F)F)cc3)CC2)cc1` [telacebec, reference compound], the MIC50 ([1]; Mycobacterium tuberculosis) was 10 nM (≈ 5.57 ng/mL), the CFU counts (N1283 clinical isolate; Conc 8 nM) was 16000000 CFU and 19000000 CFU and 60000000 CFU and 40000000 CFU and the CFU counts (N1283 clinical isolate; Conc 32 nM) was 130000 CFU and 900000 CFU and 7000000 CFU and 8000000 CFU. For the same compound, the CFU counts (N1283 clinical isolate; Conc 128 nM) was 180000 CFU and 380000 CFU and 120000 CFU and 150000 CFU, the CFU counts (WT H37Rv; Conc 8 nM) was 30000000 CFU and 50000000 CFU and the CFU counts (WT H37Rv; Conc 32 nM) was 19000000 CFU and 32000000 CFU and 49500000 CFU. For the same compound, the CFU counts (WT H37Rv; Conc 128 nM) was 20000000 CFU and 17000000 CFU and 41500000 CFU and 12000000 CFU and the “reduction in lung bacterial burden compared to BPaC alone” value (M. tuberculosis HN878) was 2 log.
